pIC50: −log10 of the molar value.
These compounds were tested against T1, human Fatty Acid Synthase (Homo sapiens, UniProt P49327) (assay: Human FAS enzyme assay (decrease in NADPH fluorescence)). Details: % inhibition at a concentration of 100 micromolar.
T1 construct: made in house
Format: biochemical
Outline: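 In-house human FAS (0.4 μg) was preincubated 15 min at RT with compound and NADPH (added at 166.6 μM) in 0.1 M Tris pH 7.5, 1 mM glutathione, 0.05% BSA. Malonyl-/acetyl-CoA (500/150 μM in substrate mix) was then added for 60 min. Readout was NADPH fluorescence loss (ex 340/em 460) over a time-zero read, with IC50 from a sigmoid fit.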

T1 sequence (P49327 whole entry): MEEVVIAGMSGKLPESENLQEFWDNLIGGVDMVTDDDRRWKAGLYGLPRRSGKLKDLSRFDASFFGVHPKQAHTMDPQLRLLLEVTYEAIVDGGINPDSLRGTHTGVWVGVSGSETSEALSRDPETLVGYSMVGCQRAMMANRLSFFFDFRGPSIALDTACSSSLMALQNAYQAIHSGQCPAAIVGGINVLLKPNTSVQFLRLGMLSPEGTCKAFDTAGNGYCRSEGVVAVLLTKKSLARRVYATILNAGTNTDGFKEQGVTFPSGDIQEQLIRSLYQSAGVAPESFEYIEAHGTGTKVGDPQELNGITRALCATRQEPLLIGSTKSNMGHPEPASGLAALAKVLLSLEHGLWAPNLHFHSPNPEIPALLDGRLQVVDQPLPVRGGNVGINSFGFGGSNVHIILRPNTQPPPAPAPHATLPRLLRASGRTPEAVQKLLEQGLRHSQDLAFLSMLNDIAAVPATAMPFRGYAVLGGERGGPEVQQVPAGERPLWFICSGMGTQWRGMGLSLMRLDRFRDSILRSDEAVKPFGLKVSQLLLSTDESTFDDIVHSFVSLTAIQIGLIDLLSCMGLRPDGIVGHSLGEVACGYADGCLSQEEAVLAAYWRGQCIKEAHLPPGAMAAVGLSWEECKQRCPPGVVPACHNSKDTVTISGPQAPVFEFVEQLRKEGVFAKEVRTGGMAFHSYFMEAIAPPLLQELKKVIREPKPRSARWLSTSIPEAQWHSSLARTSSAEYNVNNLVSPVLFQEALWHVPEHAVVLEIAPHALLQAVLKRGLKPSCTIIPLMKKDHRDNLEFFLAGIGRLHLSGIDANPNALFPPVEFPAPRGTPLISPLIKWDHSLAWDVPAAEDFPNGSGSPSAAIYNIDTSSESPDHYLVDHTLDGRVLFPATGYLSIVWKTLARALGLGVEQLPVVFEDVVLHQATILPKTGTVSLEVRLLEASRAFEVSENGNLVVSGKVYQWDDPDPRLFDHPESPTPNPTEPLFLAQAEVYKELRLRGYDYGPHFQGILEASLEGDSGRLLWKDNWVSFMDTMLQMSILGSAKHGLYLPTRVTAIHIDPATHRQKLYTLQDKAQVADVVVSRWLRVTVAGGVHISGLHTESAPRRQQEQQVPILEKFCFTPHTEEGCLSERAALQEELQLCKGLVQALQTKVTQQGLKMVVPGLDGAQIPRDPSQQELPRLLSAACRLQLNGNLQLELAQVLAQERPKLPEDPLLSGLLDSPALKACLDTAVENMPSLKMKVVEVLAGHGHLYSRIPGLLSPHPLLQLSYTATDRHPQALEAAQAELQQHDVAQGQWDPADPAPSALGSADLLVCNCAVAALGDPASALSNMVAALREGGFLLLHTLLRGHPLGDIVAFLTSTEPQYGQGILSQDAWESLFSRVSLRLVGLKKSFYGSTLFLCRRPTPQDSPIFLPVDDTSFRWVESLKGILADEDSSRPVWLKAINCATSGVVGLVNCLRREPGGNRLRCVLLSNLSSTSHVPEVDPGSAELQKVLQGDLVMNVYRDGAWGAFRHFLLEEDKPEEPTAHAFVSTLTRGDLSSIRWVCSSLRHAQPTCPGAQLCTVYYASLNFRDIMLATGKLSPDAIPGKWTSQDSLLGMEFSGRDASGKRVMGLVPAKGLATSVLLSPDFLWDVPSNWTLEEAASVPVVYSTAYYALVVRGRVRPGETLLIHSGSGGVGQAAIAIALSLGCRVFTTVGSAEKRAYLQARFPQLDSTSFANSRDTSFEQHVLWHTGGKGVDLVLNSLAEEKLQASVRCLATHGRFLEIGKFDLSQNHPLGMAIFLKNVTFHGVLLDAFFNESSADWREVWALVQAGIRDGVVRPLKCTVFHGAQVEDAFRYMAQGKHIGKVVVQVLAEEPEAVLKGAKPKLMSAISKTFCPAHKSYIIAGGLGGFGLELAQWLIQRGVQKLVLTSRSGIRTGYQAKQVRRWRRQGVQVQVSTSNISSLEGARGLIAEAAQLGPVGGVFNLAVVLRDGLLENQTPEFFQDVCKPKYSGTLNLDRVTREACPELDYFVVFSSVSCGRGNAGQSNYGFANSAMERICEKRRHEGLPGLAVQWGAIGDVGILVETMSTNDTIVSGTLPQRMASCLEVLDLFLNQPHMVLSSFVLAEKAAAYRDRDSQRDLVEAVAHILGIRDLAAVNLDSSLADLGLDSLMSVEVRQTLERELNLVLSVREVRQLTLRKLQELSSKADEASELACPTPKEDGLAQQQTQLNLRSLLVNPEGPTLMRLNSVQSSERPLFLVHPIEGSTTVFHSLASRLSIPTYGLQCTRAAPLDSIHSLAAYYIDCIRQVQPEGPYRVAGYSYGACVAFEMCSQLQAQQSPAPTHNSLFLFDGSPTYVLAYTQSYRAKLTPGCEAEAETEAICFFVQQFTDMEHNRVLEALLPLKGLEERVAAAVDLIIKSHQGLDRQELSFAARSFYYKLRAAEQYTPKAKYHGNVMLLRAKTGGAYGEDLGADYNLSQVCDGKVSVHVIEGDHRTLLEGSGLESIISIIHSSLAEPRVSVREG

Row | SMILES | inhibition at 100 µM [%]
1 | Cc1ccc(C(=O)N2CCC(c3ccc(C#N)cc3)CC2)cc1NS(=O)(=O)c1cccc(C(=O)O)c1 [Example 79, 3-[[5-[4-(4-cyanophenyl)piperidine-1-carbonyl]-2-methyl-phenyl]sulfamoyl]benzoic acid] | 95
2 | C=CS(=O)(=O)Nc1cc(C(=O)N2CCC(c3ccc(C(N)=O)cc3)CC2)ccc1C [Example 104, 4-[1-[3-(ethenylsulfonylamino)-4-methyl-benzoyl]-4-piperidyl]benzamide] | 76
3 | Cc1ccc(C(=O)N2CCC(c3ccc(C#N)cc3)CC2)cc1NS(=O)(=O)CCc1ccccc1 [Example 202, N-[5-[4-(4-cyanophenyl)piperidine-1-carbonyl]-2-methylphenyl]-2-phenylethanesulfonamide] | 90
4 | Cc1ccc(C(=O)N2CCC(c3ccc(C#N)cc3)CC2)cc1NS(=O)(=O)C1CC1 [Example 14, N-[5-[4-(4-cyanophenyl)piperidine-1-carbonyl]-2-methyl-phenyl]cyclopropanesulfonamide] | 89
5 | Cc1ccc(NS(=O)(=O)Cc2ccccc2)cc1C(=O)N1CCC(c2ccc(C#N)cc2)CC1 [Example 8, N-[3-[4-(4-cyanophenyl)piperidine-1-carbonyl]-4-methyl-phenyl]-1-phenyl-methanesulfonamide] | 82
6 | Cc1ccc(C(=O)N2CCC(c3ccc(C#N)cc3)CC2)cc1NS(=O)(=O)C1CCN(S(C)(=O)=O)C1 (stereo not shown) [Example 154, N-[5-[4-(4-cyanophenyl)piperidine-1-carbonyl]-2-methyl-phenyl]-1-methylsulfonyl-pyrrolidine-3-sulfonamide] | 99
7 | Cc1ccc(C(=O)N2CCC(c3ccc(C#N)cc3)CC2)cc1NS(=O)(=O)CCCN [Example 126, 3-amino-N-[5-[4-(4-cyanophenyl)piperidine-1-carbonyl]-2-methyl-phenyl]propane-1-sulfonamide] | 87
8 | Cc1ccc(C(=O)N2CCC(c3ccc(C#N)cc3)CC2)cc1NS(=O)(=O)c1cccc(C(=O)NCCO)c1 [Example 84, 3-[[5-[4-(4-cyanophenyl)piperidine-1-carbonyl]-2-methyl-phenyl]sulfamoyl]-N-(2-hydroxyethyl)benzamide] | 92
9 | Cc1ccc(C(=O)N2CCC(c3ccc(Cl)cc3)CC2)cc1NS(C)(=O)=O [Example 155, N-[5-[4-(4-chlorophenyl)piperidine-1-carbonyl]-2-methyl-phenyl]methanesulfonamide] | 84
10 | Cc1ccc(NS(=O)(=O)c2ccc(C#N)cc2)cc1C(=O)N1CCC(c2ccc(C#N)cc2)CC1 [Example 49, 4-cyano-N-[3-[4-(4-cyanophenyl)piperidine-1-carbonyl]-4-methyl-phenyl]benzenesulfonamide] | 83
11 | CCS(=O)(=O)NCc1ccc(C2CCN(C(=O)c3ccc(C)c(NS(C)(=O)=O)c3)CC2)cc1 [Example 227, N-[[4-[1-(3-methanesulfonamido-4-methylbenzoyl)piperidin-4-yl]phenyl]methyl]ethanesulfonamide] | 87.4
12 | Cc1cc(C)c(C(=O)N2CCC(c3ccc(C#N)cc3)CC2)cc1NS(=O)(=O)Cc1ccccc1 [Example 29, N-[5-[4-(4-cyanophenyl)piperidine-1-carbonyl]-2,4-dimethyl-phenyl]-1-phenyl-methanesulfonamide] | 93
13 | Cc1ccc(NS(=O)(=O)CC2CCCC2)cc1C(=O)N1CCC(c2ccc(C#N)cc2)CC1 [Example 43, N-[3-[4-(4-cyanophenyl)piperidine-1-carbonyl]-4-methyl-phenyl]-1-cyclopentyl-methanesulfonamide] | 93
14 | Cc1ccc(C(=O)N2CCC(c3ccc(C#N)cc3)CC2)cc1NS(=O)(=O)CCCNC(=O)c1ccccc1 [Example 133, N-[3-[[5-[4-(4-cyanophenyl)piperidine-1-carbonyl]-2-methyl-phenyl]sulfamoyl]propyl]benzamide] | 91
15 | Cc1ccc(C(=O)N2CCC(c3ccc(NS(C)(=O)=O)cc3)CC2)cc1NS(C)(=O)=O [Example 221, N-[4-[1-(3-methanesulfonamido-4-methylbenzoyl)piperidin-4-yl]phenyl]methane-sulfonamide] | 74
16 | CCS(=O)(=O)N1CCC(S(=O)(=O)Nc2cc(C(=O)N3CCC(c4ccc(C#N)cc4)CC3)ccc2C)CC1 [Example 122, N-[5-[4-(4-cyanophenyl)piperidine-1-carbonyl]-2-methyl-phenyl]-1-ethylsulfonyl-piperidine-4-sulfonamide] | 98
17 | COC(=O)C(C)S(=O)(=O)Nc1cc(C(=O)N2CCC(c3ccc(C#N)cc3)CC2)ccc1C (stereo not shown) [Example 137, Methyl 2-[[5-[4-(4-cyanophenyl)piperidine-1-carbonyl]-2-methyl-phenyl]sulfamoyl]propanoate] | 97
18 | CCC(=O)NCc1ccc(C2CCN(C(=O)c3ccc(C)c(NS(C)(=O)=O)c3)CC2)cc1 [Example 225, N—[[4-[1-(3-methanesulfonamido-4-methylbenzoyl)piperidin-4-yl]phenyl]methyl]propanamide] | 89.1
19 | CCNC(=O)NCc1ccc(C2CCN(C(=O)c3ccc(C)c(NS(C)(=O)=O)c3)CC2)cc1 [Example 234, 1-ethyl-3-[[4-[1-(3-methanesulfonamido-4-methylbenzoyl)piperidin-4-yl]phenyl]methyl]urea] | 78.3

Same assay, conditions: compounds excluded from the claims by proviso

Row | SMILES | IC50s in the range of about 0.001 μM to about 30 μM
20 | Cc1ccc(C(=O)N2CCC(c3cccc(Cl)c3)CC2)cc1NS(C)(=O)=O [N-[5-[4-(3-chlorophenyl)piperidine-1-carbonyl]-2-methylphenyl]methanesulfonamide] | do not have IC50s in the range of about 0.001 μM to about 30 μM
21 | Cc1ccc(C(=O)N2CCC(c3cccc(C#N)c3)CC2)cc1NS(C)(=O)=O [N-[5-[4-(3-cyanophenyl)piperidine-1-carbonyl]-2-methylphenyl]methanesulfonamide] | do not have IC50s in the range of about 0.001 μM to about 30 μM
22 | Cc1ccc(C(=O)N2CCC(c3ccccc3C#N)CC2)cc1NS(C)(=O)=O [N-[5-[4-(2-cyanophenyl)piperidine-1-carbonyl]-2-methylphenyl]methanesulfonamide] | do not have IC50s in the range of about 0.001 μM to about 30 μM
23 | Cc1ccc(C(=O)N2CCC(c3ccccc3)CC2)cc1NS(=O)(=O)c1ccc(Cl)cc1 [4-chloro-N-[2-methyl-5-(4-phenylpiperidine-1-carbonyl)phenyl]benzenesulfonamide] | do not have IC50s in the range of about 0.001 μM to about 30 μM
24 | COc1ccc(CNC(=O)c2ccccc2S(=O)(=O)Nc2cc(C(=O)N3CCC(c4ccc(C#N)cc4)CC3)ccc2C)c(OC)c1 [2-[[5-[4-(4-cyanophenyl)piperidine-1-carbonyl]-2-methylphenyl]sulfamoyl]-N-[(2,4-dimethoxyphenyl)methyl]benzamide] | do not have IC50s in the range of about 0.001 μM to about 30 μM

Same assay, conditions: unit inferred

Row | SMILES | pIC50
25 | CNC(=O)CCc1ccc(C2CCN(C(=O)c3ccc(C)c(NS(C)(=O)=O)c3)CC2)cc1 [Example 248, 3-[4-[1-(3-methanesulfonamido-4-methylbenzoyl)piperidin-4-yl]phenyl]-N-methylpropanamide] | 6.39
